Active and inactive are the calls of the source.
Legend:
[1] = IGROV1 ovarian cancer cell cytotoxicity, dose response, PAX8 inhibitor project, plate reader, dry powder samples (AID 743043); assay type: functional, cell-based; details: IGROV-1
[2] = molecular target: Paired box protein Pax-8 (Homo sapiens, UniProt Q06710); assay: inhibitors of PAX8-driven TPO luciferase reporter, dose response, RMG-I cells, cherry-pick (AID 687027); assay type: functional, cell-based;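 further: luciferase reporter driven by Pax8 target thyroperoxidase promoter measured by SteadyGlo luminescence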
[3] = NIH:OVCAR-3 ovarian cancer cell cytotoxicity, dose response, PAX8 inhibitor project, plate reader, dry powder samples (AID 743044); assay type: functional, cell-based
[4] = IOSE-T80 ovarian epithelial cell cytotoxicity, dose response, cytotoxicity control for PAX8 inhibitor project, plate reader, dry powder samples (AID 743045); assay type: functional, cell-based
[5] = cytotoxicity in OVCAR8 ovarian cancer cells, dose response, PAX8 project, cell-based, plate reader, dry powder samples (AID 743197); assay type: functional; details: OVCAR-8
[6] = Late stage counterscreen for inhibitors of Trypanosoma brucei methionyl tRNA synthetase (MetRS): Luminescence-based cell-based high throughput dose response assay to identify compounds that are cytotoxic to Jurkat human T lymphocyte cells.; assay type: functional
[7] = HepG2 cell cytotoxicity, dose response, cytotoxicity control, cherry-picked samples (AID 1159577); assay type: functional, cell-based
[8] = P. falciparum Dd2 growth inhibitors, dose response, SYBR Green, cherry-picked samples (AID 1159567); assay type: functional, cell-based
[9] = HeLa cell cytotoxicity, dose response, cytotoxicity control, CellTiter-Glo luminescence, dry powder, set 2 (AID 720593); assay type: functional, cell-based
[10] = molecular target: Nonstructural protein 1 (Influenza A virus, UniProt Q194T2); assay type: functional, Influenza A virus (A/California/07/2009(H1N1))
[11] = system: Streptococcus sp. 'group A'; assay: growth inhibition of control SK(-) GAS strain, dose response, counter-screen for streptokinase expression inhibitor project, luminescence, kanamycin, BacTiterGlo, confirmation (AID 1900); assay type: functional, organism-based
[12] = system: Streptococcus; assay: Group A Streptococcus viability loss, dose response, counter-screen for streptokinase expression inhibitor project, luminescence, BacTiterGlo (AID 1915); assay type: functional, organism-based;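 further: potency for reduction of bacterial viability or growth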
[13] = HEK293T cell cytotoxicity, dose response, cytotoxicity control, CellTiter-Glo luminescence, dry powder, set 2 (AID 720595); assay type: functional, cell-based; details: HEK293
[14] = molecular target: T1, Streptokinase A (Streptococcus pyogenes serotype M1, UniProt P10520); assay: S. pyogenes streptokinase expression inhibitors, potency, dose response, plasminogen activation absorbance, OD405 (AID 1914); assay type: functional, Streptococcus pyogenes M1 GAS;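 further: secreted streptokinase activity via plasminogen activation per viability signal from cell pellet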
T1 sequence (P10520 whole entry): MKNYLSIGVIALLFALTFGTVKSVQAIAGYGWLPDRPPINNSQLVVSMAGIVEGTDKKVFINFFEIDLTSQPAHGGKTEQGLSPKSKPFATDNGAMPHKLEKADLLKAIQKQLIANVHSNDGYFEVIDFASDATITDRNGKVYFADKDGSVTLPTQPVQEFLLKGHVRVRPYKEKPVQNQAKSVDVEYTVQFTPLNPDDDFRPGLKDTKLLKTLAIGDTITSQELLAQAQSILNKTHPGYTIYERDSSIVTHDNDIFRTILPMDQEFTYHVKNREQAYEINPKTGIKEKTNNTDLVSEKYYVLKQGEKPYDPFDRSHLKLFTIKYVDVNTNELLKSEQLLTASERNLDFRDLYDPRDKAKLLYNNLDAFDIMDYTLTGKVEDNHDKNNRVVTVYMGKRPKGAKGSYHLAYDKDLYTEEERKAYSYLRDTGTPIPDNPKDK

[15] = molecular target: Kallikrein-7 (Homo sapiens, UniProt P49862); assay: Fluorescence Intensity-based biochemical primary high throughput dose response assay to identify activators of kallikrein-7 (K7) zymogen.
[16] = A549 cell cytotoxicity, dose response, cytotoxicity control, 24 h, CellTiter-Glo luminescence, cherry-picks (AID 1053115); assay type: functional, cell-based; details: A549, 24 h

Sequence of Paired box protein Pax-8 (Q06710 whole entry): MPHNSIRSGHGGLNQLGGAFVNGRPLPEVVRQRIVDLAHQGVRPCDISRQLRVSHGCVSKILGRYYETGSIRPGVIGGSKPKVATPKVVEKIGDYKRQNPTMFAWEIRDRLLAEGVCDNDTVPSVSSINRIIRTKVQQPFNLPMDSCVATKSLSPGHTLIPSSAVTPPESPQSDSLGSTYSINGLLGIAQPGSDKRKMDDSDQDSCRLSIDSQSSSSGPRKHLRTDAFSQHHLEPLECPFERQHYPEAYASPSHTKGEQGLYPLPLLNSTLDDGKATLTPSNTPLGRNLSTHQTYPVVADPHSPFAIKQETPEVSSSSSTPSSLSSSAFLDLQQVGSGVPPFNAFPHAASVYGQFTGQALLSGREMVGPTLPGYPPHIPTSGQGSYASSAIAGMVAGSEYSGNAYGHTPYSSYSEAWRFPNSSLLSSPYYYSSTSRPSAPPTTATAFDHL
Sequence of Kallikrein-7 (P49862 whole entry): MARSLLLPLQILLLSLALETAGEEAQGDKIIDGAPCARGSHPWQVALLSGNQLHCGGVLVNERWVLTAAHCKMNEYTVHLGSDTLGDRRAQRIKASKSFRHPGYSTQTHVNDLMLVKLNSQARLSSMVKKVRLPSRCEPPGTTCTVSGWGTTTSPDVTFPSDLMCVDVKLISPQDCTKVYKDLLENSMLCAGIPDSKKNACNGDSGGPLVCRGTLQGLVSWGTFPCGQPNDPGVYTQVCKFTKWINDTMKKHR
Sequence of Nonstructural protein 1 (Q194T2 whole entry): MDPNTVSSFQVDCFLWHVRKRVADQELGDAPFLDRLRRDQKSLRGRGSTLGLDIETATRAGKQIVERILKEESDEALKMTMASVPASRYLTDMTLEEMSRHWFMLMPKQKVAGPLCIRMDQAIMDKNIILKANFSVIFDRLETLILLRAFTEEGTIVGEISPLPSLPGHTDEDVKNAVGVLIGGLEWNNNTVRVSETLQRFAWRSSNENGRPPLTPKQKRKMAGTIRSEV

C[C@H]1CCCCO[C@H](CN(C)C(=O)Nc2ccc(C(F)(F)F)cc2)[C@@H](C)CN([C@@H](C)CO)C(=O)c2cc(NS(=O)(=O)c3ccc(Cl)cc3)ccc2O1
AC50 [1]: 47.6 µM (active) | AC50 [2]: 4.68 µM (active) | AC50 [3]: 20.1 µM (active) | AC50 [4]: 51.5 µM (active) | AC50 [5]: 37.2 µM (active)

O=C(CC(=O)Nc1cccc(Cl)c1)NN=Cc1ccccc1
IC50 [6]: > 83.3 µM (inactive)

COc1ccc2c3c([nH]c2c1)[C@@H](CO)N(C(=O)Nc1ccc(F)cc1)CC31CN(Cc2ccccc2OC)C1
AC50 [7]: 9.77 µM (active) | AC50 [8]: 3.7 µM (active)

Cc1ccc(C(=O)Nc2nc(-c3ccccn3)cs2)o1
AC50 [9]: > 52 µM (inactive) | IC50 [10]: 10.1 µM (active) | EC50 [11]: 17.9 µM (active) | EC50 [12]: > 150 µM (not active) | AC50 [13]: 29.1 µM (active) | EC50 [14]: > 150 µM (not active)

Cc1cc(=O)oc2c3c(cc(OCC(=O)NCc4ccncc4)c12)OC(C)(C)CC3
EC50 [15]: > 69.5 µM (inactive)

O=C(Nc1ccc2c(c1)[C@@H]1C[C@@H](CC(=O)N3CCCCC3)O[C@@H](CO)[C@@H]1O2)Nc1ccccc1F
AC50 [16]: 47.8 µM (active)
